Reference: patent US20110105554A1, “MEANS FOR TREATING MYOSIN-RELATED DISEASES” (KINARIS BIOMEDICALS GMBH, priority 2007, published 2011)

Key:
chicken myosin-5a = chicken myosin-5a (Gallus gallus, UniProt Q02440); assay: Actin-activated ATPase activity (NADH-coupled assay), chicken myosin-5a; assay type: biochemical
Protocol: (§1) Based on the structure of the myosin-2 motor domain with bound PBP, we performed molecular modeling studies to elucidate the specificity of PBP-binding to myosins from different classes. […] To test the predictions from the modeling studies, we determined actin-activated ATPase activities in the presence of 0 to 150 μM PBP with rabbit skeletal myosin-2 heavy meromyosin (HMM), myosin-5a isolated from chicken brain, and recombinant Dictyostelium myosin class-1, 2 and 5 motor-domain constructs (FIG. 9a). […] The concentrations of PBP required for half-maximal inhibition of the different myosin motors was calculated from fitting the data to hyperbolae. […] To determine the extend to which PBP impairs the coupling between the actin- and nucleotide-binding sites of myosin, we measured the ATP turn-over rates of Dictyostelium myosin-2 and myosin-5b motor domain constructs over the range from 0 to 50 μM F-actin in the absence and presence of 25 μM PBP.
(§2) Protein preparation. Rabbit fast skeletal muscle heavy meromyosin (HMM) was prepared as described by Kron and Spudich^9. […]
(§3) Steady-state kinetics. Basal and actin-activated Mg^2+-ATPase activities were measured with the NADH-coupled assay^19 in a buffer containing 25 mM HEPES, 25 mM KCl, and 4 mM MgCl2, 0.5 mM DTT at pH 7.0 in the presence of 1 mM ATP at 25° C. […]

[1] = system: skinned muscle fibre preparations from rabbit psoas muscle; assay: Isometric force measurement on skinned muscle fibres
Text: To test the effect of PBP on fully assembled myofilament arrays, we examined the contractile properties of skinned muscle fibre preparations from rabbit psoas muscle. Pentabromopseudilin leads to a more than 4-fold reduction in isometric force development of skinned muscle fibre preparations from rabbit psoas muscle. The Ki is in the same range as that determined for actomyosin ATPase activity. (FIG. 12)

myosin-2 = assay type: biochemical; settings: 100 μM PBP
Protocol: Actin-sliding motility was performed at 25° C. using an Olympus IX81 inverted fluorescence microscope. Experimental flow cells were constructed using bovine serum albumin (0.5 mg/ml in assay buffer)-coated glass slides and nitrocellulose-coated coverslips. Myosins were actin affinity-purified immediately before use, to remove rigor heads^20. Sliding movement was started by adding assay buffer containing 4 mM ATP, 10 mM DTT, 0.5 mg/ml bovine serum albumin, anti-fade solution, and 0.5% methylcellulose to the flow cell. Average sliding velocity was determined from the Gaussian distribution of automatically tracked actin filaments using DiaTrack 3.0 and Origin 7.0.

[2] = target: rabbit skeletal myosin-2 heavy meromyosin (HMM); assay: Actin-activated ATPase activity, rabbit skeletal myosin-2 HMM; assay type: biochemical; settings: 0 to 150 μM PBP, hyperbolic fit; read-out: Ki, half-maximal inhibition of actin-activated ATPase activity
Protocol: as §1, §2, §3

[3] = Development toxicity testing on medaka embryos; settings: medaka, in vivo
Protocol: (a) KIN-43 in concentrations between 0.5 μM and 100 μM were incubated for 48 h with 20 medaka embryos per concentration. […] (b) Light microscopy image of embryo after 48 h in the absence of KIN-43.
We are using a library of common organic molecules and functional groups and are applying an empirical force field description of the nonbonding interactions between a ligand and the binding site in order to build up de novo compounds with spatial and electrostatic properties complementary to the allosteric binding site.

[4] = system: Saccharomyces cerevisiae cells; assay: Myo2p-dependent changes in mitochondrial morphology in yeast; assay type: cell-based
Protocol: FIG. 13: Myo2p-dependent changes in mitochondrial morphology. In yeast cells, the class-5 myosins Myo2p is responsible for the distribution of mitochondria between mother and daughter cells during cytokinesis and has be shown to affect mitochondrial morphology during […]. […] Insets show the same cells viewed under transmitted light. Bar: 5 μm
To test the specific inhibition of myosin-5 function in a cellular context, we exposed Saccharomyces cerevisiae cells to 100 to 500 nM PBP. S. cerevisiae has five myosin heavy chain genes: a myosin-2, two class-1 myosins, and the class-5 myosins Myo2p and Myo4p. Myo2p plays a crucial role in polarized distribution of mitochondria and is required for retention of newly inherited mitochondria in yeast cells during cell division^4-6. Myo4p is required for mRNA transport and facilitates movement of ER tubules into the growing bud. Myo4p null mutants are viable and display no detectable phenotype. Deletion of the myo3 and myo5 genes, encoding class-1 myosins, leads to severe defects in growth and actin cytoskeletal organization. Severe growth defects are also observed upon depletion of the class-2 myosin Myo1p. Therefore, we expected that selective inhibition of class-5 myosins will produce readily detectable changes in the morphology of mitochondria without affecting cell growth and cytokinesis. To facilitate the visual inspection of mitochondrial morphology, we transfected the cells used for these experiments with an expression vector for the production of mitochondria-targeted GFP^7. A yeast mutant strain with myo2 expression under the control of the TetO7 promoter was used as control^8. Repression of the TetO7 promoter by the addition of 10 μg/ml deoxycycline to the culture medium of this strain led to an apparent fragmentation of mitochondria.
Myo2p-dependent changes in mitochondrial morphology. […] Yeast strains producing mitochondria-targeted GFP were supplied by Dr. B. Westermann^7, allowing us to study the morphology of yeast mitochondria in a fluorescence microscope. […] Cells were analyzed at the end of the logarithmic growth phase. […]

chicken myosin-5a, sequence (Q02440 1-764): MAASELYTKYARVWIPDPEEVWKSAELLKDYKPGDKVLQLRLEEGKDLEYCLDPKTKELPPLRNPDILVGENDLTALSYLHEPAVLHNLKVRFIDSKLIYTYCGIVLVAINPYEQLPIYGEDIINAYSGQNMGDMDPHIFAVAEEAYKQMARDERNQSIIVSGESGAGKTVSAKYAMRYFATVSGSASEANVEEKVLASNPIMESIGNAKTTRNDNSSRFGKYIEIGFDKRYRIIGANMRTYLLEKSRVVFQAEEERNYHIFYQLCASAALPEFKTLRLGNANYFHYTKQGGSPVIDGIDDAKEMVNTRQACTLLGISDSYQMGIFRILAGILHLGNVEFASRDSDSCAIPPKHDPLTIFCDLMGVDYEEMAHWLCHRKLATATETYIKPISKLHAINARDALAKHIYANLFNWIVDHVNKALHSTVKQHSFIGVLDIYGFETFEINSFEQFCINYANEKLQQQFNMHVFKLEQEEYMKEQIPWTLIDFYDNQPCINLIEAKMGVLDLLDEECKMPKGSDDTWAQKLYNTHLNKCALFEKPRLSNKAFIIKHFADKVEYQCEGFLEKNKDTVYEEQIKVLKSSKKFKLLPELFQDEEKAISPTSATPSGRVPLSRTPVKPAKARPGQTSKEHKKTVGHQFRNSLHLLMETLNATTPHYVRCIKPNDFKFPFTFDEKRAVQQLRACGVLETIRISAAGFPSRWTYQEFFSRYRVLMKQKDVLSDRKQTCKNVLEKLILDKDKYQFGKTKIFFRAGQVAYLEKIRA
Text for mammalian myosin-5a: In this context, preferred selectivity means a more than 20-fold smaller IC50 value compared to fast skeletal muscle myosin-2 and other references myosins.

SMILES: Oc1c(Br)cc(Br)cc1-c1[nH]c(Br)c(Br)c1Br [KIN-43]
- ATPase activity at 30 μM F-actin in the presence of inhibitor (chicken myosin-5a): 0.34 s⁻¹
- Ki (chicken myosin-5a): 1190 nM
- fold reduction in isometric force development [1]: more than 4 fold
- fold reduction in the average gliding velocity (myosin-2): 2-to-3 fold
- preferred selectivity: fold smaller IC50 compared to fast skeletal muscle myosin-2 and other reference myosins (mammalian myosin-5a): more than 20 fold
- Ki [2]: 23000 nM
- LC50 at 48 h [3]: 3000 nM
- mitochondrial morphology ([4]; 100 nM PBP): closely resembled that of untreated wild-type cells
- mitochondrial morphology ([4]; 500 nM PBP, 12 hours, wild-type cells, listed as PBP): phenotype of Myo2p-depleted cells can be phenocopied
- growth kinetics of yeast cells ([4]; 500 nM, listed as PDP): almost the same growth kinetics as wild type control cultures
